Source: the supplement of paper PMC10307832

Columns and labels:
Assay in all cases: relative viability (nuclei count vs DMSO), 5 days (fraction); higher = more cells survive
EHT 1864 + Linsitinib = compound: C1COCCN1CC2=CC(=O)C(=CO2)OCCCCCSC3=C4C=CC(=CC4=NC=C3)C(F)(F)F [EHT 1864] + C[C@]1(O)C[C@@H](c2nc(-c3ccc4ccc(-c5ccccc5)nc4c3)c3c(N)nccn32)C1 [Linsitinib] (partner 1 µM)
Procedure, shortened: (§1)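 One day after seeding in 1536-well plates, lung cancer cell lines were dosed by pin tool. Dosing was either single-drug or a fixed anchor-drug dose plus five library-drug doses (not always all listed) in √10 steps. After 5 days, nuclei were stained in one fix-and-stain step and counted on 4× images, and relative viability is the nuclei count of treated wells over that of vehicle wells, given as the median of duplicate plates.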

EHT 1864 + Pemetrexed = compound: C1COCCN1CC2=CC(=O)C(=CO2)OCCCCCSC3=C4C=CC(=CC4=NC=C3)C(F)(F)F [EHT 1864] + Nc1nc2[nH]cc(CCc3ccc(C(=O)N[C@@H](CCC(=O)O)C(=O)O)cc3)c2c(=O)[nH]1 [Pemetrexed] (partner 0.2 µM)
Procedure, shortened: as §1

EHT 1864 + Vorinostat = compound: C1COCCN1CC2=CC(=O)C(=CO2)OCCCCCSC3=C4C=CC(=CC4=NC=C3)C(F)(F)F [EHT 1864] + O=C(CCCCCCC(=O)Nc1ccccc1)NO [Vorinostat] (partner 1 µM)
Procedure, shortened: as §1

EHT 1864 + Olaparib = compound: C1COCCN1CC2=CC(=O)C(=CO2)OCCCCCSC3=C4C=CC(=CC4=NC=C3)C(F)(F)F [EHT 1864] + O=C(c1cc(Cc2n[nH]c(=O)c3ccccc23)ccc1F)N1CCN(C(=O)C2CC2)CC1 [Olaparib] (partner 8 µM)
Procedure, shortened: as §1

| Cell Line | relative viability (EHT 1864 + Linsitinib; first compound 0.04 µM) | relative viability (EHT 1864 + Linsitinib; first compound 0.1265 µM) | relative viability (EHT 1864 + Linsitinib; first compound 0.4 µM) | relative viability (EHT 1864 + Linsitinib; first compound 1.265 µM) | relative viability (EHT 1864 + Linsitinib; first compound 4 µM) | relative viability (EHT 1864 + Pemetrexed; first compound 0.04 µM) | relative viability (EHT 1864 + Pemetrexed; first compound 0.1265 µM) | relative viability (EHT 1864 + Pemetrexed; first compound 0.4 µM) | relative viability (EHT 1864 + Pemetrexed; first compound 1.265 µM) | relative viability (EHT 1864 + Pemetrexed; first compound 4 µM) | relative viability (EHT 1864 + Vorinostat; first compound 0.04 µM) | relative viability (EHT 1864 + Vorinostat; first compound 0.1265 µM) | relative viability (EHT 1864 + Vorinostat; first compound 0.4 µM) | relative viability (EHT 1864 + Vorinostat; first compound 1.265 µM) | relative viability (EHT 1864 + Vorinostat; first compound 4 µM) | relative viability (EHT 1864 + Olaparib; first compound 0.04 µM) | relative viability (EHT 1864 + Olaparib; first compound 0.1265 µM) | relative viability (EHT 1864 + Olaparib; first compound 0.4 µM) | relative viability (EHT 1864 + Olaparib; first compound 1.265 µM) | relative viability (EHT 1864 + Olaparib; first compound 4 µM) |
| --- | --- | --- | --- | --- | --- | --- | --- | --- | --- | --- | --- | --- | --- | --- | --- | --- | --- | --- | --- | --- |
| LU99A | 0.514 | 0.4 | 0.5 | 0.607 | 0.539 | 0.196 | 0.178 | 0.179 | 0.186 | 0.19 | 0.58 | 0.347 | 0.426 | 0.579 | 0.324 | 0.26 | 0.262 | 0.25 | 0.284 | 0.274 |
| LXF-289 | 0.926 | 0.929 | 0.883 | 0.898 | 0.821 | 0.857 | 0.894 | 0.835 | 0.769 | 0.843 | 0.773 | 0.697 | 0.712 | 0.735 | 0.734 | 1.12 | 0.963 | 1.02 | 0.953 | 0.97 |
| NCI-H727 | 0.272 | 0.366 | 0.349 | – | 0.319 | – | – | – | – | – | 1.47 | 1.31 | 1.07 | 1.26 | 1.29 | 1.07 | 0.75 | 0.459 | 0.529 | 0.524 |
| NCI-H1299 | 0.903 | 0.877 | 0.981 | 0.969 | 0.936 | – | – | – | – | – | – | – | – | – | – | 0.96 | 0.939 | 0.964 | 0.913 | 0.893 |
| NCI-H1563 | 1.17 | 1.3 | 1.24 | 1.17 | 0.94 | 0.682 | 0.709 | 0.742 | 0.626 | 0.74 | – | – | – | – | – | – | – | – | – | – |
| NCI-H1648 | – | – | – | – | – | 0.827 | – | 0.673 | 0.655 | 0.726 | 0.562 | – | 0.436 | 0.411 | 0.644 | 0.765 | – | 0.759 | 0.769 | 0.984 |
| NCI-H1650 | – | – | – | – | – | 0.384 | 0.327 | 0.331 | 0.36 | 0.358 | 0.529 | 0.54 | 0.592 | 0.623 | 0.521 | 0.722 | 0.63 | 0.776 | 0.845 | 0.682 |
| NCI-H1703 | 0.725 | – | 0.931 | 0.789 | 0.647 | – | – | – | – | – | – | – | – | – | – | 0.396 | – | 0.461 | 0.277 | 0.291 |
| NCI-H1792 | 0.514 | 0.376 | 0.556 | 0.57 | 0.628 | 0.804 | – | 0.735 | 0.776 | 1.1 | – | – | – | – | – | 0.466 | – | 0.339 | 0.359 | 0.416 |
| NCI-H2170 | – | – | – | – | – | 0.279 | 0.251 | 0.262 | 0.279 | 0.266 | 0.789 | 0.692 | 0.774 | 0.84 | 0.94 | 0.595 | 0.628 | 0.61 | 0.581 | 0.547 |
| NCI-H2342 | – | – | – | – | – | 0.603 | 0.704 | 0.788 | 0.709 | 0.742 | 0.688 | 0.725 | 0.703 | 0.803 | 0.787 | 0.402 | 0.409 | 0.474 | 0.39 | 0.451 |
